Laboratory results as given in ChEMBL document CHEMBL1131686, “Synthesis and biological activities of topoisomerase I inhibitors, 6-N-amino analogues of NB-506” (Bioorg Med Chem Lett, 1999).

Assays:
[1] = target: Epidermal growth factor receptor (Homo sapiens, UniProt P00533); experiment: In vitro activity against Epidermal growth factor receptor (using poly(Glu4Tyr1) as a substrate)
[2] = test system: MKN-45; experiment: In vitro cytotoxicity (CTX) against human stomach cancer cells (MKN-45) using sulforhodamine B dye-staining method; format: functional, cell-based
[3] = test system: P388; experiment: Effect on the formation of protein-DNA complex in P388 cells K+/SDS method; format: functional, Mus musculus
[4] = test system: P388; experiment: In vitro cytotoxicity (CTX) against murine leukemia cells (P388) using colorimetric tetrazolium-formazan method; format: functional, cell-based; details: Mus musculus
[5] = target: Protein kinase C alpha type (Homo sapiens, UniProt P17252); experiment: In vitro activity evaluated against protein kinase C (using histone II-As as a substrate)
[6] = target: T1, DNA topoisomerase 1 (Homo sapiens, UniProt P11387); experiment: In vitro activity against topoisomerase-1 mediated cleavage of supercoiled pBR322 plasmid DNA; format: functional
T1 sequence (P11387 whole entry): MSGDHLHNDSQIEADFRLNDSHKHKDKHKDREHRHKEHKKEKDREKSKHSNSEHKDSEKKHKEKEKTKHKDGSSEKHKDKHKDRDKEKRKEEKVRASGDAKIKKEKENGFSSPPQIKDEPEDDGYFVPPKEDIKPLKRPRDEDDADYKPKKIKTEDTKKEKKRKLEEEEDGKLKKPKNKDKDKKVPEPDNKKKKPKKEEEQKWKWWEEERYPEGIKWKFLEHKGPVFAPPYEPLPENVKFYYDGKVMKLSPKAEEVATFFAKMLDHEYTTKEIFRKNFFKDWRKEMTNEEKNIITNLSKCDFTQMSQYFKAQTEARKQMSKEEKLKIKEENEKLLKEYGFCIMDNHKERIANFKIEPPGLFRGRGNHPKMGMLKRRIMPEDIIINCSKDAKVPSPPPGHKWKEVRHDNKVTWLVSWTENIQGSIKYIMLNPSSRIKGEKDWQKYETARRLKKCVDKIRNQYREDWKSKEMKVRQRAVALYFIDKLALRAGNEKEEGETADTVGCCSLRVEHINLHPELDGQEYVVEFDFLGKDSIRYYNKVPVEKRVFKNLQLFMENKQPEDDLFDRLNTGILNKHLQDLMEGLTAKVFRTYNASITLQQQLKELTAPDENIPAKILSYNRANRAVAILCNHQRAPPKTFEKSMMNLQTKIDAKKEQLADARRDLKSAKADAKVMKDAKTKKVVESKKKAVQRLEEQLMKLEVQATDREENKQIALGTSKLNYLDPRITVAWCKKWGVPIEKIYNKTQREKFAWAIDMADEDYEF

[7] = target: DNA topoisomerase II (Homo sapiens, UniProt P11388+Q02880); experiment: In vitro activity against topoisomerase-2 mediated cleavage of supercoiled pBR322 plasmid DNA; format: functional
[8] = test system: MKN-45; experiment: Cytotoxicity against human stomach cancer cells (MKN-45) after intravenous administration (5 times/week for 2 weeks after tumor grew to 0.2 cme3 or larger); format: functional, cell-based; details: MKN-45, 336 h
[9] = test system: Mus musculus; experiment: Cytotoxicity against human stomach cancer cells (MKN-45) implanted subcutaneously into a side flank of nude mice; format: functional, Cancer cell lines
[10] = Lethal dose after intravenous administration (5 times/week for 2 weeks after tumor grew to 0.2 cme3 or larger) in mice; format: toxicity; details: mouse, in vivo, 336 h

Epidermal growth factor receptor, sequence (P00533 whole entry): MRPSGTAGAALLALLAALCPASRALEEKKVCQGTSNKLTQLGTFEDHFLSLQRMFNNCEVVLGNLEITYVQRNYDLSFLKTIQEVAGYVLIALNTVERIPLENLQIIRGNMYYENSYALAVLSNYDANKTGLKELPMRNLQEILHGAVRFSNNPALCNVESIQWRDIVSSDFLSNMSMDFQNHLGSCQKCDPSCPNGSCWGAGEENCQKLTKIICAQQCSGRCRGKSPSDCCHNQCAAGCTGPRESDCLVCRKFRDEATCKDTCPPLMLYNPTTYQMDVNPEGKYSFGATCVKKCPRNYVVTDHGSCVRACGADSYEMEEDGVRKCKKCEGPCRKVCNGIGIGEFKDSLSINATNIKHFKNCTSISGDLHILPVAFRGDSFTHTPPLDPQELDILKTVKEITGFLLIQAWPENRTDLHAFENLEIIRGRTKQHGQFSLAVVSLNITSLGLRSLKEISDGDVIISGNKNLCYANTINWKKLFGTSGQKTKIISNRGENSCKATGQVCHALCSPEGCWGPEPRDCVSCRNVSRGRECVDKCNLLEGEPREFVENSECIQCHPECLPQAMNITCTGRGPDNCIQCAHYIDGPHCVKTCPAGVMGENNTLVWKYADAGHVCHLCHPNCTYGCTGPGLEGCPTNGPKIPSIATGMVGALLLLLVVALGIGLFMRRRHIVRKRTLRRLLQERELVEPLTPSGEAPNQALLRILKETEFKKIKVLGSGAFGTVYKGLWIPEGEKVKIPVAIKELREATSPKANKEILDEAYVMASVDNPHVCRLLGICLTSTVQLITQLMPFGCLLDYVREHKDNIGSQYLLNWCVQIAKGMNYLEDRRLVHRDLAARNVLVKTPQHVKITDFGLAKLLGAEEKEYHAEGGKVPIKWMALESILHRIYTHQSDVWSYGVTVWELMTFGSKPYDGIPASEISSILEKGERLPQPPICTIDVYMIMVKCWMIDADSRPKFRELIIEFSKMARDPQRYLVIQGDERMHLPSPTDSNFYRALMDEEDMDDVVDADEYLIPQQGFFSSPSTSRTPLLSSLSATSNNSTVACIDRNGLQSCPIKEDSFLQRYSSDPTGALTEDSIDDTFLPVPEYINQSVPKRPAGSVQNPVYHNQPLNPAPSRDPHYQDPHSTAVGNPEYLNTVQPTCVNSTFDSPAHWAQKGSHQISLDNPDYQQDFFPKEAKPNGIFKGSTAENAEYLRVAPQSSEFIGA

| Compound | IC50 [1] [nM] | IC50 [5] [nM] | EC50 [6] [nM] | EC50 [7] [nM] | IC50 [2] [nM] | EC200 [3] [µM] | IC50 [4] [nM] | IC50 [8] [nM] | GID75 [9] [mg/me2] | LD10 [10] [mg/me2] |
| --- | --- | --- | --- | --- | --- | --- | --- | --- | --- | --- |
| O=C(O)CNN1C(=O)c2c(c3c4cccc(O)c4n(C4OC(CO)C(O)C(O)C4O)c3c3[nH]c4c(O)cccc4c23)C1=O (configuration not stated) | > 200000 | 110000 | 9500 | > 50000 | 2900 | >10 | 800 |  |  |  |
| N#CCC(=O)NN1C(=O)c2c(c3c4cccc(O)c4n(C4OC(CO)C(O)C(O)C4O)c3c3[nH]c4c(O)cccc4c23)C1=O (configuration not stated) | > 200000 | 65000 | 550 | > 50000 | 1900 | 20 | 490 |  |  |  |
| CCNN1C(=O)c2c(c3c4cccc(O)c4n(C4OC(CO)C(O)C(O)C4O)c3c3[nH]c4c(O)cccc4c23)C1=O (configuration not stated) | > 200000 | > 200000 | 3500 | > 50000 | 59 | 1.2 | 18 | 59 | >1500 | > 1500 |
| Cc1ccc(S(=O)(=O)NN2C(=O)c3c(c4c5cccc(O)c5n(C5OC(CO)C(O)C(O)C5O)c4c4[nH]c5c(O)cccc5c34)C2=O)cc1 (configuration not stated) | > 200000 | 12000 | 270 | > 50000 |  | >10 |  |  |  |  |
| NN1C(=O)c2c(c3c4cccc(O)c4n(C4OC(CO)C(O)C(O)C4O)c3c3[nH]c4c(O)cccc4c23)C1=O (configuration not stated) | > 200000 | > 200000 | 270 | > 50000 | 130 | 0.5 | 40 |  |  |  |
| CCC(=O)NN1C(=O)c2c(c3c4cccc(O)c4n(C4OC(CO)C(O)C(O)C4O)c3c3[nH]c4c(O)cccc4c23)C1=O (configuration not stated) | > 200000 | 36000 | 480 | > 50000 | 190 | 6 | 45 |  |  |  |
| O=C(NN1C(=O)c2c(c3c4cccc(O)c4n(C4OC(CO)C(O)C(O)C4O)c3c3[nH]c4c(O)cccc4c23)C1=O)c1ccccn1 (configuration not stated) | > 200000 | 41000 | 90 | > 50000 | 2500 | >10 | 470 |  |  |  |
| O=C1c2c(c3c4cccc(O)c4n(C4OC(CO)C(O)C(O)C4O)c3c3[nH]c4c(O)cccc4c23)C(=O)N1NCc1cccc(O)c1 (configuration not stated) | > 200000 | 13000 | 300 | > 50000 | 12 | 0.26 | 7 |  |  |  |
| CS(=O)(=O)NN1C(=O)c2c(c3c4cccc(O)c4n(C4OC(CO)C(O)C(O)C4O)c3c3[nH]c4c(O)cccc4c23)C1=O (configuration not stated) | > 200000 | > 200000 | 580 | > 50000 | 270 | >10 | 60 |  |  |  |

Second part, led by results:

| IC50 [1] [nM] | IC50 [5] [nM] | EC50 [6] [nM] | EC50 [7] [nM] | Compound | IC50 [2] [nM] | EC200 [3] [µM] | IC50 [4] [nM] | IC50 [8] [nM] | GID75 [9] [mg/me2] | LD10 [10] [mg/me2] |
| --- | --- | --- | --- | --- | --- | --- | --- | --- | --- | --- |
| > 200000 | > 200000 | 170 |  | CN(C)CC(=O)NN1C(=O)c2c(c3c4cccc(O)c4n(C4OC(CO)C(O)C(O)C4O)c3c3[nH]c4c(O)cccc4c23)C1=O (configuration not stated) | 460 | >10 | 260 |  |  |  |
| > 200000 | 130000 | 1000 | > 50000 | CC(=O)NN1C(=O)c2c(c3c4cccc(O)c4n(C4OC(CO)C(O)C(O)C4O)c3c3[nH]c4c(O)cccc4c23)C1=O (configuration not stated) | 260 | 2 | 150 |  |  |  |
| > 200000 | > 200000 | 360 | > 50000 | NC(=O)NN1C(=O)c2c(c3c4cccc(O)c4n(C4OC(CO)C(O)C(O)C4O)c3c3[nH]c4c(O)cccc4c23)C1=O (configuration not stated) | 270 | 2.8 | 35 |  |  |  |
| > 200000 | 35000 | 52 |  | O=C(NN1C(=O)c2c(c3c4cccc(O)c4n(C4OC(CO)C(O)C(O)C4O)c3c3[nH]c4c(O)cccc4c23)C1=O)c1ccccc1 (configuration not stated) | 48 | 10 | 12 |  |  |  |
| > 200000 | 59000 | > 10000 | > 50000 | CN(C)N1C(=O)c2c(c3c4cccc(O)c4n(C4OC(CO)C(O)C(O)C4O)c3c3[nH]c4c(O)cccc4c23)C1=O (configuration not stated) | > 10000 | >10 | 1600 |  |  |  |
| 95000 | 6800 | 250 |  | O=C(Nc1ccccc1)NN1C(=O)c2c(c3c4cccc(O)c4n(C4OC(CO)C(O)C(O)C4O)c3c3[nH]c4c(O)cccc4c23)C1=O (configuration not stated) | 250 | >10 | 250 |  |  |  |
| 90000 | 3800 | 3000 | > 50000 | O=C1NC(=O)c2c1c1c3cccc(O)c3[nH]c1c1c2c2cccc(O)c2n1C1OC(CO)C(O)C(O)C1O (configuration not stated) | 540 | 2 | 44 |  |  |  |
| 29000 | 40000 | > 3000 | > 50000 | O=C1NC(=O)c2c1c1c3cccc(O)c3[nH]c1c1[nH]c3c(O)cccc3c21 |  | 3 | 2000 |  |  |  |
| 90000 | 23000 | 160 | > 50000 | O=C(O)c1ccc(NN2C(=O)c3c(c4c5cccc(O)c5n(C5OC(CO)C(O)C(O)C5O)c4c4[nH]c5c(O)cccc5c34)C2=O)cc1 (configuration not stated) | > 10000 | >50 | 6500 |  |  |  |
| 100000 | 55000 | 350 | > 50000 | CNN1C(=O)c2c(c3c4cccc(O)c4n(C4OC(CO)C(O)C(O)C4O)c3c3[nH]c4c(O)cccc4c23)C1=O (configuration not stated) | 130 | 2.5 | 75 |  |  |  |
| 59000 | 65000 | 1200 | > 50000 | CCCNN1C(=O)c2c(c3c4cccc(O)c4n(C4OC(CO)C(O)C(O)C4O)c3c3[nH]c4c(O)cccc4c23)C1=O (configuration not stated) | 210 | 6.3 | 55 |  |  |  |
